Consider four compounds from PMC7330904 (ACS Omega, 2020).

One assay has as its system calf thymus DNA (CT-DNA). Conditions: cited from earlier work.
The subject of another assay is Hep-G2 cells. Briefly: APOPercentage apoptosis assay, Hep-G2. Conditions: Hep-G2, 24 h, IC50 of complexes, flow cytometry, vs untreated cells. The assay is classed as cell-based, human. In general terms: Flow cytometry measures light scatter and fluorescence of single cells or particles in a stream.

With `COc1cccc2c1C(=O)c1c(O)c3c(c(O)c1C2=O)C[C@@](O)(C(=O)CO)C[C@@H]3O[C@H]1C[C@H](N)[C@@H](O)[C@H](C)O1` [Epirubicin], in the assay on calf thymus DNA (CT-DNA), the “binding constant Kb of known DNA intercalator” value (“binding constant Kb” for short) is given as 3.4 × 10^4 M^–1.

In the case of `CC[n+]1c(-c2ccccc2)c2cc(N)ccc2c2ccc(N)cc21` [ethidium bromide], the “binding constant Kb” value in the assay with calf thymus DNA (CT-DNA) is given as 1.4 × 10^6 M^–1.

As to `N.N.[Cl][Pt][Cl]` [Cisplatin], in the assay on Hep-G2 cells, the “induction of apoptosis (APOPercentage dye uptake)” value was “but not Hep-G2 cells”.

For the compound `Nc1ccc2cc3ccc(N)cc3nc2c1` [Proflavine], in the assay on calf thymus DNA (CT-DNA), the “binding constant Kb” value is on record as 2.32 × 10^4 M^–1.
